The values below come from the Kinase Knowledgebase extract (Sharma et al. 2016).

Structures are written as SMILES.

The target of this assay is PIK3CG (human) (UniProt P48736). Kind of assay: Inhibition of PIK3CG Kinase Activity.
Chain of PIK3CG (human) (P48736 whole entry, looked up): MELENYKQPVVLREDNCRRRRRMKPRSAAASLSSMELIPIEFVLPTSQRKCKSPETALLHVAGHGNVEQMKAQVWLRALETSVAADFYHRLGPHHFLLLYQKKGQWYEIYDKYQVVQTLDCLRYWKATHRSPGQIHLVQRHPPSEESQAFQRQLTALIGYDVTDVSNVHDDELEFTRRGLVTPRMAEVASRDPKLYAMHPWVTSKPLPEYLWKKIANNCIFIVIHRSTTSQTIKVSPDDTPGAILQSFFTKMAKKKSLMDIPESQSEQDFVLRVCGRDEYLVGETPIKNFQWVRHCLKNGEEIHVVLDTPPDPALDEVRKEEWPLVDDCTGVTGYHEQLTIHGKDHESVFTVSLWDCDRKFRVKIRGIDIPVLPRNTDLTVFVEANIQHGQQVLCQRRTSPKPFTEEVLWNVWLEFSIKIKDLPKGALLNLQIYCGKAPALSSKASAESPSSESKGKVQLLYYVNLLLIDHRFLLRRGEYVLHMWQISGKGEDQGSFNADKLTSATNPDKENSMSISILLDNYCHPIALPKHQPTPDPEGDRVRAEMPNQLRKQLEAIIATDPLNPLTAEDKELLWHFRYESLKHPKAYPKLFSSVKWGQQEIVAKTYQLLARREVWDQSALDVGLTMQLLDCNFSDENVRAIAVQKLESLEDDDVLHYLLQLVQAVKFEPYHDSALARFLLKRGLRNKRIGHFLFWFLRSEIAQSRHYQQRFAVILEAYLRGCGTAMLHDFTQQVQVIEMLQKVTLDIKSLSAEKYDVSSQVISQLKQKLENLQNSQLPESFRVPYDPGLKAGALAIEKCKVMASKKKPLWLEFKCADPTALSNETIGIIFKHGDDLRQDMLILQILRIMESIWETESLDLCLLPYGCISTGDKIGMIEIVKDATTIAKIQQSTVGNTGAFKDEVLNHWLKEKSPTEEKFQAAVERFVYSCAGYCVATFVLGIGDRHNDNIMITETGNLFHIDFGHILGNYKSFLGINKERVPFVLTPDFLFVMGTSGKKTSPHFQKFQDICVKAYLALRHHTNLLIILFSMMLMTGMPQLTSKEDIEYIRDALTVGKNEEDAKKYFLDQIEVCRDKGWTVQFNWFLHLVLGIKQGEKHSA

`COc1ccc(CO)cc1-c1nn(C)c2nc(N)ncc12` gave an IC50 of less than 2000 nM.

Take `COc1ccc(C(=O)NC(C)C)cc1-c1nn(C)c2nc(N)ncc12`: the IC50 was less than 2000 nM.

Consider `COc1c(F)cc(F)cc1-c1nn(C)c2nc(N)ncc12`, for which the IC50 is less than 2000 nM.

`COc1ccc(-c2nn(C)c3nc(N)ncc23)cn1` gave an IC50 of less than 2000 nM.

For `Cn1nc(-c2cccc(O)c2)c2cnc(N)nc21`, the IC50 was less than 2000 nM.

On to `COc1c(Cl)cc(C(F)(F)F)cc1-c1nn(C)c2nc(N)ncc12`, for which the IC50 is less than 2000 nM.

For the compound `Cn1nc(-c2cc(F)c(OCCO)c(Br)c2)c2cnc(N)nc21`, the IC50 was less than 2000 nM.

The compound `Cn1nc(-c2ccc(Cl)c(NS(C)(=O)=O)c2)c2cnc(N)nc21` registered an IC50 of less than 2000 nM.

Compound `Cn1nc(-c2cccc(F)c2O)c2cnc(N)nc21` came in with an IC50 of less than 2000 nM.

`COCCOc1c(F)cc(-c2nn(C)c3nc(N)ncc23)cc1Br`: the IC50 was less than 2000 nM.

`CNS(=O)(=O)c1cc(-c2nn(C)c3nc(N)ncc23)ccc1Cl` displayed an IC50 of less than 2000 nM.

The compound `CC(=O)c1cccc(-c2nn(C)c3nc(N)ncc23)c1` gave an IC50 of less than 2000 nM.

In turn, `Cn1nc(-c2ccc(OC(F)(F)F)cc2O)c2cnc(N)nc21` returned a concentration for half-maximal inhibition (IC50) of less than 2000 nM.

The compound `Cn1nc(-c2ccco2)c2cnc(N)nc21` had a half-inhibitory concentration (IC50) of less than 2000 nM.

As to `COc1cc(-c2nn(C)c3nc(N)ncc23)ccn1`, the IC50 is less than 2000 nM.

In turn, `Cc1cccc(-c2nn(C)c3nc(N)ncc23)c1` yielded an IC50 of less than 2000 nM.

Compound `Cn1nc(-c2ccc(F)c(F)c2F)c2cnc(N)nc21` came in with an IC50 of less than 2000 nM.

Compound `Cn1nc(-c2ccc(O)cc2O)c2cnc(N)nc21` returned an IC50 of less than 2000 nM.

Compound `COc1ccc(Cl)cc1-c1nn(C)c2nc(N)ncc12` displayed an IC50 of less than 2000 nM.

The compound `Cn1nc(-c2cc(Cl)cc(Br)c2O)c2cnc(N)nc21` had an IC50 of less than 2000 nM.

Turning to `CC(C)Cc1ccc(-c2nn(C)c3nc(N)ncc23)cc1`, the IC50 was less than 2000 nM.

The compound `Cn1nc(-c2cccc(S(C)(=O)=O)c2)c2cnc(N)nc21` registered an IC50 of less than 2000 nM.

In turn, `Cn1nc(-c2ccc(O)cc2)c2cnc(N)nc21` showed an IC50 of less than 2000 nM.

The compound `Cn1nc(-c2cc(Cl)c(O)c(C(F)(F)F)c2)c2cnc(N)nc21` registered an IC50 of less than 2000 nM.

For the compound `COc1cc(OC(F)(F)F)c(Cl)cc1-c1nn(C)c2nc(N)ncc12`, the IC50 was less than 2000 nM.

`COc1ccc(C=O)cc1-c1nn(C)c2nc(N)ncc12` showed an IC50 of less than 2000 nM.

On to `CNC(=O)c1cccc(-c2nn(C)c3nc(N)ncc23)c1`, for which the IC50 is less than 2000 nM.

In turn, `COc1cc(F)ccc1-c1nn(C)c2nc(N)ncc12` returned an IC50 of less than 2000 nM.

On to `CC(=O)c1ccc(-c2nn(C)c3nc(N)ncc23)cc1`, for which the IC50 was less than 2000 nM.

In turn, `Cn1nc(-c2cc(F)ccc2O)c2cnc(N)nc21` showed an IC50 of less than 2000 nM.

`Cn1nc(-c2cccc(NS(C)(=O)=O)c2)c2cnc(N)nc21` gave an IC50 of less than 2000 nM.

Turning to `Cn1nc(-c2cc(F)c(O)c(F)c2)c2cnc(N)nc21`, the IC50 was less than 2000 nM.

`Cn1nc(-c2ccc(N)c(F)c2)c2cnc(N)nc21` gave an IC50 of less than 2000 nM.

`COc1ccc(F)cc1-c1nn(C)c2nc(N)ncc12` showed an IC50 of less than 2000 nM.

Compound `COc1cc(-c2nn(C)c3nc(N)ncc23)cc(Cl)c1O` registered an IC50 of less than 2000 nM.

Compound `Cn1nc(-c2cc(C(F)(F)F)cc(Cl)c2O)c2cnc(N)nc21` showed an IC50 of less than 2000 nM.

In the case of `Cc1[nH]c2ccc(-c3nn(C)c4nc(N)ncc34)cc2c1C`, the IC50 is less than 2000 nM.

The compound `Cn1nc(-c2cc(F)cc(F)c2)c2cnc(N)nc21` came in with an IC50 of less than 2000 nM.

For `Cn1nc(-c2cc(C=O)ccc2O)c2cnc(N)nc21`, the IC50 was less than 2000 nM.

Take `Cn1nc(-c2cc(Br)c(O)c(Br)c2)c2cnc(N)nc21`: the concentration for half-maximal inhibition (IC50) is less than 2000 nM.

Turning to `COc1cc(-c2nn(C)c3nc(N)ncc23)cc(OC)c1OC`, the IC50 is less than 2000 nM.

For `Cn1nc(-c2cncc(S(C)(=O)=O)c2)c2cnc(N)nc21`, the IC50 was less than 2000 nM.

`Cn1nc(-c2ccc(F)c(F)c2)c2cnc(N)nc21` yielded an IC50 of less than 2000 nM.

Take `Cn1nc(-c2ccc(Cl)s2)c2cnc(N)nc21`: the IC50 was less than 2000 nM.

With `COc1cc(OC)c(S(=O)(=O)O)cc1-c1nn(C)c2nc(N)ncc12`, the IC50 is less than 2000 nM.

`COc1ccc(-c2nn(C)c3nc(N)ncc23)cc1F` had an IC50 of less than 2000 nM.

`Cn1nc(-c2ccc(O)c(C(F)(F)F)c2)c2cnc(N)nc21` registered a half-maximal inhibitory concentration (IC50) of less than 2000 nM.

`COc1ccc(-c2nn(C)c3nc(N)ncc23)cc1Br` had an IC50 of less than 2000 nM.

Compound `Cn1nc(-c2cc(F)cc(Br)c2)c2cnc(N)nc21` showed a half-maximal inhibitory concentration (IC50) of less than 2000 nM.

On to `Cn1nc(-c2ccc3c(c2)OCO3)c2cnc(N)nc21`, for which the half-inhibitory concentration (IC50) is less than 2000 nM.

`Cn1nc(-c2cc(F)c(C(=O)O)c(F)c2)c2cnc(N)nc21` gave an IC50 of less than 2000 nM.

As for `Cn1nc(-c2cccnc2)c2cnc(N)nc21`, the IC50 was less than 2000 nM.

`Cn1nc(-c2cc(F)c(C#N)c(F)c2)c2cnc(N)nc21` gave an IC50 of less than 2000 nM.

Compound `CC(C)CNC(=O)c1cccc(-c2nn(C)c3nc(N)ncc23)c1` returned an IC50 of less than 2000 nM.

Compound `COc1ncc(-c2nn(C)c3nc(N)ncc23)cc1F` came in with an IC50 of less than 2000 nM.

For `Cn1nc(-c2ccc3cc[nH]c3c2)c2cnc(N)nc21`, the IC50 was less than 2000 nM.

`Cn1nc(-c2ccc(OCc3ccccc3)c(F)c2)c2cnc(N)nc21`: the concentration for half-maximal inhibition (IC50) is less than 2000 nM.

`Cn1nc(-c2ccc(C#N)cc2)c2cnc(N)nc21` displayed a half-inhibitory concentration (IC50) of less than 2000 nM.

In turn, `COc1ccc(Br)cc1-c1nn(C)c2nc(N)ncc12` came in with an IC50 of less than 2000 nM.

As for `COc1ccc(-c2nn(C)c3nc(N)ncc23)cc1Cl`, the concentration for half-maximal inhibition (IC50) was less than 2000 nM.

Regarding `Cn1nc(-c2cc(Cl)ccc2O)c2cnc(N)nc21`, the IC50 is less than 2000 nM.

As to `CCN(CC)S(=O)(=O)c1cc(-c2nn(C)c3nc(N)ncc23)ccc1O`, the IC50 is less than 2000 nM.

Compound `CC(=O)c1cccc(-c2nn(C)c3nc(N)ncc23)c1F` had an IC50 of less than 2000 nM.

Regarding `Cn1nc(-c2ccc3ccoc3c2)c2cnc(N)nc21`, the IC50 was less than 2000 nM.

Consider `Cn1nc(-c2cc(F)c(F)c(F)c2)c2cnc(N)nc21`, for which the IC50 was less than 2000 nM.

In turn, `Cn1nc(-c2ccc(F)c(Cl)c2)c2cnc(N)nc21` registered a half-inhibitory concentration (IC50) of less than 2000 nM.

`Cc1noc(C)c1-c1nn(C)c2nc(N)ncc12` showed an IC50 of less than 2000 nM.

For the compound `Cn1nc(-c2cc(F)ccc2OCCO)c2cnc(N)nc21`, the IC50 was less than 2000 nM.

`COc1ccc(C(=O)O)cc1-c1nn(C)c2nc(N)ncc12` returned an IC50 of less than 2000 nM.

The compound `Cn1nc(-c2ccc(O)c(F)c2)c2cnc(N)nc21` gave a 50% inhibitory concentration (IC50) of less than 2000 nM.

Consider `CN1CCN(CCCOc2ccc(-c3nn(C)c4nc(N)ncc34)cc2F)CC1`, for which the IC50 is less than 2000 nM.

As to `Cn1nc(-c2cncc(C(F)(F)F)c2)c2cnc(N)nc21`, the IC50 is less than 2000 nM.

`COc1ccc(-c2nn(C)c3nc(N)nc(NCc4ccccc4)c23)cc1F` gave a concentration for half-maximal inhibition (IC50) of less than 2000 nM.

As to `Cn1nc(-c2cc(Cl)c(OC(F)(F)F)c(Br)c2O)c2cnc(N)nc21`, the IC50 is less than 2000 nM.

With `Cn1nc(-c2ccc(Cl)c(Cl)c2)c2cnc(N)nc21`, the IC50 was less than 2000 nM.

The compound `Cn1nc(-c2cccc(F)c2)c2cnc(N)nc21` gave a half-maximal inhibitory concentration (IC50) of less than 2000 nM.

`CC(C)NC(=O)c1cccc(-c2nn(C)c3nc(N)ncc23)c1`: the IC50 was less than 2000 nM.

`Cn1nc(-c2cccc3cccnc23)c2cnc(N)nc21` came in with an IC50 of less than 2000 nM.

Compound `Cn1nc(-c2cc(F)c(O)c(Cl)c2)c2cnc(N)nc21` displayed an IC50 of less than 2000 nM.

Take `Cn1nc(-c2cc(C(F)(F)F)ccc2O)c2cnc(N)nc21`: the half-inhibitory concentration (IC50) is less than 2000 nM.

For the compound `Cn1nc(-c2cnc(N3CCNCC3)nc2)c2cnc(N)nc21`, the IC50 was less than 2000 nM.

Consider `COCCOc1ccc(-c2nn(C)c3nc(N)ncc23)cc1F`, for which the IC50 is less than 2000 nM.

Compound `CNS(=O)(=O)c1cc(-c2nn(C)c3nc(N)ncc23)c(OC)cc1OC` gave an IC50 of less than 2000 nM.

`Cn1nc(-c2ccc(OCCCO)c(F)c2)c2cnc(N)nc21` came in with an IC50 of less than 2000 nM.

`Cn1nc(-c2ccc(NS(C)(=O)=O)c(F)c2)c2cnc(N)nc21` had an IC50 of less than 2000 nM.

For the compound `CN(C)C(=O)c1cc(-c2nn(C)c3nc(N)ncc23)cc(F)c1OCc1ccccc1`, the IC50 was less than 2000 nM.

On to `Cn1nc(-c2ccc(OCCO)c(F)c2)c2cnc(N)nc21`, for which the IC50 was less than 2000 nM.

Consider `CNS(=O)(=O)c1cccc(-c2nn(C)c3nc(N)ncc23)c1`, for which the IC50 was less than 2000 nM.

Consider `Cn1nc(-c2ccncc2)c2cnc(N)nc21`, for which the IC50 is less than 2000 nM.

With `Cn1nc(-c2cc(F)c(OCCN3CCCC3)c(Br)c2)c2cnc(N)nc21`, the IC50 was less than 2000 nM.

The compound `Cn1nc(-c2ccc(OCCCN3CCOCC3)c(F)c2)c2cnc(N)nc21` showed a concentration for half-maximal inhibition (IC50) of less than 2000 nM.

Consider `COc1ccc(NCCCN(C)C)cc1-c1nn(C)c2nc(N)ncc12`, for which the IC50 is less than 2000 nM.

In turn, `Cn1nc(-c2cc(F)c(O)c(C#N)c2)c2cnc(N)nc21` showed an IC50 of less than 2000 nM.

Take `COc1c(F)cc(-c2nn(C)c3nc(N)ncc23)cc1F`: the IC50 is less than 2000 nM.

With `Cn1nc(-c2ccnc(Cl)c2)c2cnc(N)nc21`, the IC50 is less than 2000 nM.

In turn, `Cn1nc(-c2cccc(C=O)c2)c2cnc(N)nc21` had a half-inhibitory concentration (IC50) of less than 2000 nM.

As for `Cn1nc(-c2cc(F)c(C=O)c(F)c2)c2cnc(N)nc21`, the IC50 was less than 2000 nM.

`Cn1nc(-c2cc(O)cc(F)c2)c2cnc(N)nc21` returned an IC50 of less than 2000 nM.

Take `CCCOc1cc(F)ccc1-c1nn(C)c2nc(N)ncc12`: the IC50 is less than 2000 nM.

Take `Cn1nc(-c2cnc(N)c(C(F)(F)F)c2)c2cnc(N)nc21`: the IC50 is less than 2000 nM.

Turning to `Cn1nc(-c2ccc(OCCn3ccnc3)c(F)c2)c2cnc(N)nc21`, the IC50 is less than 2000 nM.

The compound `CC(=O)c1ccc(-c2nn(C)c3nc(N)ncc23)s1` showed an IC50 of less than 2000 nM.

The compound `Cn1nc(-c2cccc(C(F)(F)F)c2)c2cnc(N)nc21` gave an IC50 of less than 2000 nM.

`Cn1nc(-c2cc(F)c(O)c(Br)c2)c2cnc(N)nc21` displayed an IC50 of less than 2000 nM.

`Cn1nc(-c2cccc(C#N)c2)c2cnc(N)nc21` returned an IC50 of less than 2000 nM.

For the compound `Cn1nc(-c2ccc(OCCN3CCCC3)c(F)c2)c2cnc(N)nc21`, the IC50 was less than 2000 nM.

For `COc1ncc(-c2nn(C)c3nc(N)ncc23)c(OC)n1`, the IC50 was less than 2000 nM.

With `CCOc1ccc(-c2nn(C)c3nc(N)ncc23)cc1F`, the 50% inhibitory concentration (IC50) is less than 2000 nM.

For `COc1ccc(-c2nn(C)c3nc(N)ncc23)cc1`, the half-maximal inhibitory concentration (IC50) was less than 2000 nM.
